From patent US11084796B2, “Heterocyclic derivatives for the treatment of RSV” (GEORGIA STATE UNIVERSITY RESEARCH FOUNDATION, INC., priority 2016, dated 2021)

What follows are compounds tested on RSV (assay: Potency range (EC50 values) of C series compounds against RSV). Conditions: human respiratory syncytial virus.
Assay type: cell-based
Experimental: Two-fold serial dilutions of hit candidates were prepared in 384-well plates in three replicates each using the Nimbus liquid handler. BEAS-2B cells (8×10^3/well) were then plated as before, serial dilutions transferred using the pin-tool, and cells infected with recombinant virus strains expressing distinct luciferase reporter proteins or left uninfected for cell viability assessment. Reporter signals were recorded as outlined above. To determine cell viability, PrestoBlue substrate (life technologies) was added after 40-hour incubation of cells at 37° C. (5 μl/well) and top-read fluorescence (excitation 560 nm; emission 590 nm; instrument gain 85) recorded after 45 minutes of incubation at 37° C. using the H1 synergy plate reader. Four-parameter variable slope regression modeling was applied to determine 50% active (EC50) and toxic (CC50) concentrations.

| SMILES | EC50 |
| --- | --- |
| COc1cccc2c1N(CC(=O)NC1CCCCC1)C(=O)C(C(=O)N1CCCCC1)S2 (centres unmarked) [AVG-148] | 10 to 20 µM |
| Cc1ccccc1NC(=O)CN1C(=O)C(C(=O)N2CCCCC2)Sc2cc(Cl)ccc21 (centres unmarked) [AVG-219] | 0.1 to 1 µM |
| COc1ccc2c(c1)N(CC(=O)NC1CCCCC1)C(=O)C(C(=O)N1CCCCC1)S2 (centres unmarked) [AVG-147] | 10 to 20 µM |
| O=C(CN1C(=O)C(C(=O)N2CCCCC2)Sc2ccccc21)Nc1ccncc1 (centres unmarked) [AVG-224] | 10 to 20 µM |
| O=C(CN1C(=O)C(C(=O)N2CCCCC2)Sc2cccc(Cl)c21)NC1CCCCC1 (centres unmarked) [AVG-064] | 10 to 20 µM |
| Cc1ccc2c(c1)SC(C(=O)N1CCCCC1)C(=O)N2CC(=O)NC1CCCCC1 (centres unmarked) [AVG-151] | 10 to 20 µM |
| O=C(CN1C(=O)C(C(=O)N2CCCCC2)Sc2ccccc21)NC1CC1 (centres unmarked) [AVG-114] | > 20 µM |
| O=C(CN1C(=O)C(C(=O)N2CCCCC2)Sc2cc(F)ccc21)NC1CCCCC1 (centres unmarked) [AVG-150] | 1 to 10 µM |
| NC(=O)CN1C(=O)C(C(=O)N2CCCCC2)Sc2ccccc21 (centres unmarked) [AVG-113] | > 20 µM |
| O=C(C1Sc2ccccc2N(Cc2nc3ccccc3[nH]2)C1=O)N1CCCCC1 (centres unmarked) [AVG-112] | 10 to 20 µM |
| CN1CCC(NC(=O)C2Sc3ccccc3N(CC(=O)NC3CCCCC3)C2=O)CC1 (centres unmarked) [AVG-085] | > 20 µM |
| Cc1cccc(NC(=O)CN2C(=O)C(C(=O)N3CCCCC3)Sc3ccccc32)c1 (centres unmarked) [AVG-053] | > 20 µM |
| O=C(CN1C(=O)C(C(=O)N2CCCCC2)Sc2ccccc21)NC1CCCC1 (centres unmarked) [AVG-051] | 1 to 10 µM |
| O=C(C1Sc2ccccc2N(Cc2nc3ccccc3o2)C1=O)N1CCCCC1 (centres unmarked) [AVG-111] | > 20 µM |
| O=C(CN1C(=O)C(C(=O)N2CCCCC2)Sc2c(Cl)cccc21)NC1CCCCC1 (centres unmarked) [AVG-061] | 1 to 10 µM |
| O=C(CN1C(=O)C(C(=O)N2CCNCC2)Sc2ccccc21)NC1CCCCC1 (centres unmarked) [AVG-055] | > 20 µM |
| O=C(CN1C(=O)C(C(=O)N2CCCCC2)Sc2ccccc21)Nc1cccnc1 (centres unmarked) [AVG-223] | 10 to 20 µM |
| COc1cccc2c1SC(C(=O)N1CCCCC1)C(=O)N2CC(=O)NC1CCCCC1 (centres unmarked) [AVG-145] | 1 to 10 µM |
| CN(C)C(=O)C1Sc2ccccc2N(CC(=O)NC2CCCCC2)C1=O (centres unmarked) [AVG-057] | 1 to 10 µM |
| Cc1ccccc1NC(=O)CN1C(=O)C(C(=O)N2CCCCC2)Sc2ccccc21 (centres unmarked) [AVG-052] | 1 to 10 µM |

| SMILES | EC50 |
| --- | --- |
| O=C(CN1C(=O)C(C(=O)N2CCCCC2)Sc2ccc(Cl)cc21)NC1CCCCC1 (centres unmarked) [AVG-063] | 1 to 10 µM |
| COc1ccc2c(c1)SC(C(=O)N1CCCCC1)C(=O)N2CC(=O)NC1CCCCC1 (centres unmarked) [AVG-146] | 1 to 10 µM |
| CC1CCC(NC(=O)CN2C(=O)C(C(=O)N3CCCCC3)Sc3ccccc32)CC1 (centres unmarked) [AVG-049] | 1 to 10 µM |
| CC(C)NC(=O)C1Sc2ccccc2N(CC(=O)NC2CCCCC2)C1=O (centres unmarked) [AVG-087] | 10 to 20 µM |
| O=C(CN1C(=O)C(C(=O)N2CCCCC2)Sc2ccccc21)NCC1CCCCC1 (centres unmarked) [AVG-216] | 1 to 10 µM |
| CC(NC(=O)C1Sc2ccccc2N(CC(=O)NC2CCCCC2)C1=O)c1ccccc1 (centres unmarked) [AVG-143] | > 20 µM |
| O=C(CN1C(=O)C(C(=O)NC2CCNCC2)Sc2ccccc21)NC1CCCCC1 (centres unmarked) [AVG-084] | > 20 µM |
| CC(C)(NC(=O)C1Sc2ccccc2N(CC(=O)NC2CCCCC2)C1=O)c1ccccc1 (centres unmarked) [AVG-144] | 1 to 10 µM |
| O=C(CN1C(=O)C(C(=O)NC2CCOCC2)Sc2ccccc21)NC1CCCCC1 (centres unmarked) [AVG-083] | > 20 µM |
| C=C(C)c1ccc2c(c1)SC(C(=O)N1CCCCC1)C(=O)N2CC(=O)NC1CCCCC1 (centres unmarked) [AVG-215] | 1 to 10 µM |
| O=C(CN1C(=O)C(C(=O)N2CCCCC2)Sc2ccccc21)Nc1ccccc1Cl (centres unmarked) [AVG-220] | 1 to 10 µM |
| O=C(CN1C(=O)C(C(=O)N2CCCCC2)Sc2ccccc21)NCc1ccccc1 (centres unmarked) [AVG-137] | 1 to 10 µM |
| O=C(CN1C(=O)C(C(=O)N2CCCCC2)Sc2ccccc21)NC1CCCCC1 (centres unmarked) [AVG-044, N-cyclohexyl-2-(3-oxo-2-(piperidine-1-carbonyl)-2H-benzo[b][1,4]thiazin-4(3H)-yl) acetamide] | 1 to 10 µM |
| O=C(CN1C(=O)C(C(=O)N2CCCCC2)Sc2cc(Br)ccc21)NC1CCCCC1 (centres unmarked) [AVG-149] | 1 to 10 µM |
| CC(C)NC(=O)CN1C(=O)C(C(=O)N2CCCCC2)Sc2ccccc21 (centres unmarked) [AVG-048] | > 20 µM |
| O=C(CN1C(=O)C(C(=O)N2CCOCC2)Sc2ccccc21)NC1CCCCC1 (centres unmarked) [AVG-054, N-cyclohexyl-2-(2-(morpholine-4-carbonyl)-3-oxo-2H-benzo[b][1,4]thiazin-4(3H)-yl) acetamide] | 1 to 10 µM |
| COc1ccccc1NC(=O)CN1C(=O)C(C(=O)N2CCCCC2)Sc2ccccc21 (centres unmarked) [AVG-221] | 1 to 10 µM |
| CC(C)(C)NC(=O)CN1C(=O)C(C(=O)N2CCCCC2)Sc2ccccc21 (centres unmarked) [AVG-140] | 1 to 10 µM |
| O=C(CN1C(=O)C(C(=O)N2CCCCC2)Sc2cc(Cl)ccc21)NCC1CCCCC1 (centres unmarked) [AVG-217] | 1 to 10 µM |
| CC(C)(C)NC(=O)C1Sc2ccccc2N(CC(=O)NC2CCCCC2)C1=O (centres unmarked) [AVG-141] | 1 to 10 µM |

| SMILES | EC50 |
| --- | --- |
| O=C(CN1C(=O)C(C(=O)N2CCCCC2)Sc2ccccc21)NC1CCOCC1 (centres unmarked) [AVG-045] | > 20 µM |
| O=C(CN1C(=O)C(C(=O)N2CCCCC2)Sc2cnccc21)NC1CCCCC1 (centres unmarked) [AVG-155] | 1 to 10 µM |
| CCc1ccc2c(c1)SC(C(=O)N1CCCCC1)C(=O)N2CC(=O)NC1CCCCC1 (centres unmarked) [AVG-152] | 1 to 10 µM |
| O=C(CN1C(=O)C(C(=O)N2CCCCC2)Sc2ccccc21)N1CCCCC1 (centres unmarked) [AVG-060] | > 20 µM |
| CC1(C)CCC(NC(=O)CN2C(=O)C(C(=O)N3CCCCC3)Sc3ccccc32)CC1 (centres unmarked) [AVG-050] | 1 to 10 µM |
| O=C(CN1C(=O)C(C(=O)N2CCCCC2)Sc2cc(C(F)(F)F)ccc21)NC1CCCCC1 (centres unmarked) [AVG-156] | 1 to 10 µM |
| CN(C(=O)CN1C(=O)C(C(=O)N2CCCCC2)Sc2ccccc21)C1CCCCC1 (centres unmarked) [AVG-059] | > 20 µM |
| CN1CCC(NC(=O)CN2C(=O)C(C(=O)N3CCCCC3)Sc3ccccc32)CC1 (centres unmarked) [AVG-047] | > 20 µM |
| CC(NC(=O)CN1C(=O)C(C(=O)N2CCCCC2)Sc2ccccc21)c1ccccc1 (centres unmarked) [AVG-138] | 1 to 10 µM |
| O=C(CN1C(=O)C(C(=O)NC2CCCCC2)Sc2cc(Cl)ccc21)NC1CCCCC1 (centres unmarked) [AVG-218] | 1 to 10 µM |
| O=C(CN1C(=O)C(C(=O)N2CCCCC2)Sc2ccccc21)NC1CCNCC1 (centres unmarked) [AVG-046] | > 20 µM |
| CC(C)(NC(=O)CN1C(=O)C(C(=O)N2CCCCC2)Sc2ccccc21)c1ccccc1 (centres unmarked) [AVG-139] | 1 to 10 µM |
| O=C(CN1C(=O)C(C(=O)N2CCCCC2)Sc2cc(-c3ccccc3)ccc21)NC1CCCCC1 (centres unmarked) [AVG-154] | > 20 µM |
| O=C(CN1C(=O)C(C(=O)NCc2ccccc2)Sc2ccccc21)NC1CCCCC1 (centres unmarked) [AVG-142] | 10 to 20 µM |
| CC(C)c1ccc2c(c1)SC(C(=O)N1CCCCC1)C(=O)N2CC(=O)NC1CCCCC1 (centres unmarked) [AVG-153] | 1 to 10 µM |
| O=C(CN1C(=O)C(C(=O)NC2CCCCC2)Sc2ccccc21)NC1CCCCC1 (centres unmarked) [AVG-058] | 1 to 10 µM |
| CCCCNC(=O)C1Sc2ccccc2N(CC(=O)NC2CCCCC2)C1=O (centres unmarked) [AVG-086] | 10 to 20 µM |
| O=C(CN1C(=O)C(C(=O)N2CCCCC2)Sc2cc(Cl)ccc21)NC1CCCCC1 (centres unmarked) [AVG-062] | 0.1 to 1 µM |
| CN1CCN(C(=O)C2Sc3ccccc3N(CC(=O)NC3CCCCC3)C2=O)CC1 (centres unmarked) [AVG-056] | 10 to 20 µM |
